{"source": "patent US20150297606A1", "about": "“Tricyclic Lactams for Use in the Protection of Hematopoietic Stem and Progenitor Cells Against Ionizing Radiation” (G1 THERAPEUTICS, INC., priority 2014, published 2015)", "key": {"[1]": {"test_system": "CDK4/6-dependent cell lines", "settings": "cited from earlier work"}, "CDK2/CyclinE": {"target": "CDK2/CyclinE (Homo sapiens, UniProt P24941)", "assay": "CDK2/cyclinE kinase assay (Nanosyn, Caliper microfluidic)", "type": "biochemical", "settings": "read-out: Inhibition of CDK kinases: Cdk2/CycE", "experimental": "(§1) Selected compounds disclosed herein were tested in CDK4/cyclinD1, CDK6/CycD3, CDK2/CycA, CDK2/cyclinE, CDK5/p25, CDK5/p35, CDK7/CycH/MAT1, and CDK9/CycT kinase assays by Nanosyn (Santa Clara, Calif.) to determine their inhibitory effect on these CDKs. The assays were performed using microfluidic kinase detection technology (Caliper Assay Platform). The compounds were tested in 12-point dose-response format in singlicate at Km for ATP. Phosphoacceptor substrate peptide concentration used was 1.25 μM for all assays (except […] was used for the CKD7/CycH/MAT1 assay and Staurosporine was used as the reference compound for all assays. Specifics of each assay are as described below:\nCDK2/CyclinE: Enzyme concentration: 0.2 nM; ATP concentration: 100 μM; Incubation time: 3 hr."}, "CDK4/CyclinD1": {"target": "CDK4/CyclinD1 (Homo sapiens, UniProt P11802)", "sequence (P11802 whole entry, species assumed)": "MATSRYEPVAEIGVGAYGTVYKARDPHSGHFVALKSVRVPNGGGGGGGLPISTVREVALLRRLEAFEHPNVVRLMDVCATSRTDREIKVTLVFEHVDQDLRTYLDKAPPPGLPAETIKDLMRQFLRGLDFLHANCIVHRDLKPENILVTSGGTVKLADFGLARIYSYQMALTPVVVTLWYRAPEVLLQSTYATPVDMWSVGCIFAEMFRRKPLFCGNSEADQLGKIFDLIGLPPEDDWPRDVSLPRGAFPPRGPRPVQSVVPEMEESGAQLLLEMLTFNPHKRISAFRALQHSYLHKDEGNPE", "sequence (P24385 whole entry partner, species assumed)": "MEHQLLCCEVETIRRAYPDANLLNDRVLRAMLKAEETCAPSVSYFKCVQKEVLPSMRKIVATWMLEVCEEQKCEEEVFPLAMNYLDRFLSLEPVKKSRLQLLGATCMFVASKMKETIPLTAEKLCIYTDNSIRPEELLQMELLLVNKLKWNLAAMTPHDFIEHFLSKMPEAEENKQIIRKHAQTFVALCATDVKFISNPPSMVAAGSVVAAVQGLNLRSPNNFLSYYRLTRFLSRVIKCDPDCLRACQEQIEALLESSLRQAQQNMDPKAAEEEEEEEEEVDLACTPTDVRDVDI", "assay": "CDK4/cyclinD1 kinase assay (Nanosyn, Caliper microfluidic)", "type": "biochemical", "settings": "12-point dose-response, ATP 200 μM (Km), 3 hr; read-out: Inhibition of CDK kinases: Cdk4/CycD1", "experimental": "as §1\nCDK4/CyclinD1: Enzyme concentration: 1 nM; ATP concentration: 200 μM; Incubation time: 3 hr."}, "CDK6/CyclinD3": {"target": "CDK6/CyclinD3 (Homo sapiens, UniProt Q00534)", "sequence (Q00534 whole entry, species assumed)": "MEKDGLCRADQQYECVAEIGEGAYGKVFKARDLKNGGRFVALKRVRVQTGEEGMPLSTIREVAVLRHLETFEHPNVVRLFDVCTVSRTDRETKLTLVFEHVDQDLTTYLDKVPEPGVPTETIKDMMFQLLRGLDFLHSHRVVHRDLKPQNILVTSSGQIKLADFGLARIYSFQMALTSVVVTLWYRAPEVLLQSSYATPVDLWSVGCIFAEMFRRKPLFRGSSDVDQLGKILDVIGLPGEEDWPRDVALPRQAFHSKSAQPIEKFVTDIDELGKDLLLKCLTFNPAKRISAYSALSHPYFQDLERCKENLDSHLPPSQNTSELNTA", "sequence (P30281 whole entry partner, species assumed)": "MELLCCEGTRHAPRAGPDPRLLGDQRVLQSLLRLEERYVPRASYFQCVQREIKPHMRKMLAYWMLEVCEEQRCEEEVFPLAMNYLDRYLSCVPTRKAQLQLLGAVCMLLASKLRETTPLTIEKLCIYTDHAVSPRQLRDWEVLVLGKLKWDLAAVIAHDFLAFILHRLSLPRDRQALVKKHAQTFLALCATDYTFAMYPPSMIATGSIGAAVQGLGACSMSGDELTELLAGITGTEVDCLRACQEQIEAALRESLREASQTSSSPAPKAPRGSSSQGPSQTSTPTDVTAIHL", "assay": "CDK6/CycD3 kinase assay (Nanosyn, Caliper microfluidic)", "type": "biochemical", "settings": "12-point dose-response, ATP 300 μM (Km), 3 hr; read-out: Inhibition of CDK kinases: Cdk6/CycD3", "experimental": "as §1\nCDK6/CyclinD3: Enzyme concentration: 10 nM; ATP concentration: 300 μM; Incubation time: 3 hr."}, "CDK5/p35": {"target": "CDK5/p35 (Homo sapiens, UniProt Q00535)", "sequence (Q00535 whole entry, species assumed)": "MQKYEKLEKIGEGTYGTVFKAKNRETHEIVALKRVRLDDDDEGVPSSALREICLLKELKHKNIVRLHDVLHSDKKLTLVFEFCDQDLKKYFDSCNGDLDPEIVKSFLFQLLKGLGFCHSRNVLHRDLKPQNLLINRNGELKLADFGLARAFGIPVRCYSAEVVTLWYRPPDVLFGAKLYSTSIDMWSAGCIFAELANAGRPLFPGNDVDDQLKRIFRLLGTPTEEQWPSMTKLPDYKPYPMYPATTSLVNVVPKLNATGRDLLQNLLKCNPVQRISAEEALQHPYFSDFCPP", "sequence (Q15078 whole entry partner, species assumed)": "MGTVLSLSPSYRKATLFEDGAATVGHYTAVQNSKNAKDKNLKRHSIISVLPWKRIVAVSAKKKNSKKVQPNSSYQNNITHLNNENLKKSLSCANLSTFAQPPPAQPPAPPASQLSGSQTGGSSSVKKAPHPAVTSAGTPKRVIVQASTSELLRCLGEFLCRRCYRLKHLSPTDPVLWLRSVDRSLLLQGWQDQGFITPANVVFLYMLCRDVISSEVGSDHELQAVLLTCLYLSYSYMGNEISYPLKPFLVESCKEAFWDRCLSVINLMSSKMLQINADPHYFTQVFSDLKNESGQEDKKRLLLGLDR", "assay": "CDK5/p35 kinase assay (Nanosyn, Caliper microfluidic)", "type": "biochemical", "settings": "12-point dose-response, ATP 20 μM (Km), 3 hr; read-out: Inhibition of CDK kinases: Cdk5/p35", "experimental": "as §1\nCDK5/p35: Enzyme concentration: 0.07 nM; ATP concentration: 20 μM; Incubation time: 3 hr."}, "CDK2/CyclinA": {"target": "CDK2/CyclinA (Homo sapiens, UniProt P24941)", "assay": "CDK2/CycA kinase assay (Nanosyn, Caliper microfluidic)", "type": "biochemical", "settings": "12-point dose-response, ATP 50 μM (Km), 3 hr; read-out: Inhibition of CDK kinases: Cdk2/CycA", "experimental": "as §1\nCDK2/CyclinA: Enzyme concentration: 0.2 nM; ATP concentration: 50 μM; Incubation time: 3 hr."}, "CDK5/p25": {"target": "CDK5/p25 (Homo sapiens, UniProt Q00535)", "sequence (Q00535 whole entry, species assumed)": "as the sequence (Q00535 whole entry, species assumed) above", "sequence (Q15078 99-307 partner limits assumed, species assumed)": "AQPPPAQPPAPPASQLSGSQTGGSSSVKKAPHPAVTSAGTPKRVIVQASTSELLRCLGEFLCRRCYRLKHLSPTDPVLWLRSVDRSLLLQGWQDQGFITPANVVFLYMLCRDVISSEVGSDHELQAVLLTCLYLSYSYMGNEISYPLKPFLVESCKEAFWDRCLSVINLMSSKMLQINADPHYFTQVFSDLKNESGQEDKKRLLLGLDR", "assay": "CDK5/p25 kinase assay (Nanosyn, Caliper microfluidic)", "type": "biochemical", "settings": "12-point dose-response, ATP 20 μM (Km), 3 hr; read-out: Inhibition of CDK kinases: Cdk5/p25", "experimental": "as §1\nCDK5/p25: Enzyme concentration: 0.1 nM; ATP concentration: 20 μM; Incubation time: 3 hr."}, "CDK9/CycT": {"target": "CDK9/CycT (Homo sapiens, UniProt P50750)", "sequence (P50750 whole entry, species assumed)": "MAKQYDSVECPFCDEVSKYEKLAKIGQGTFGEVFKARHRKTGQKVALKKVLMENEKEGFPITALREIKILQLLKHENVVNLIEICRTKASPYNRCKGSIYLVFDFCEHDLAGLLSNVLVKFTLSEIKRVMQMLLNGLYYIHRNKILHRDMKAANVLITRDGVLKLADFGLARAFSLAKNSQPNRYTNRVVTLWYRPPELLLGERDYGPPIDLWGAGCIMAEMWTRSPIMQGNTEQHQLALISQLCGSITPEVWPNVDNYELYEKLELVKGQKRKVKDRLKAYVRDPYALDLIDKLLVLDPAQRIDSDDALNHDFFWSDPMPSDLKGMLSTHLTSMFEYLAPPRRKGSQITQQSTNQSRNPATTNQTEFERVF", "sequence (O60563 whole entry partner, species assumed)": "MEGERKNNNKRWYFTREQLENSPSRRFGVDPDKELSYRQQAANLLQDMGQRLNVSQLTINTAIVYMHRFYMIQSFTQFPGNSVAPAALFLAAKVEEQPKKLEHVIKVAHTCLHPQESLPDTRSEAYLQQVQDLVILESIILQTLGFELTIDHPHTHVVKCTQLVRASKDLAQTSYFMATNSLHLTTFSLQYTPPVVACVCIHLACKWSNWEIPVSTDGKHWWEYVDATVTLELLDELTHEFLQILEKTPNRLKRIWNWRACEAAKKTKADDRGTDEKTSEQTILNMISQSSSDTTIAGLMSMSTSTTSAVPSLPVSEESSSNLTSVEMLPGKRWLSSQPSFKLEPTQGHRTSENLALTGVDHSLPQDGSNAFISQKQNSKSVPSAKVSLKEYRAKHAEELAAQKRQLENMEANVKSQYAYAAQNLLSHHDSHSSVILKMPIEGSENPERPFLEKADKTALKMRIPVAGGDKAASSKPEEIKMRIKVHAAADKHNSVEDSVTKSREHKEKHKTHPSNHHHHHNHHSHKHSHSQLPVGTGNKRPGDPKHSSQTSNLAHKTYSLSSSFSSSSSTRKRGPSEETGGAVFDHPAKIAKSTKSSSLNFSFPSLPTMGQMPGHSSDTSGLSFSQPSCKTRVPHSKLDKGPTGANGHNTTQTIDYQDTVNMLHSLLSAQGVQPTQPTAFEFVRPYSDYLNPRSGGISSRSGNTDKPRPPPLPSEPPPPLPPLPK", "assay": "CDK9/CycT kinase assay (Nanosyn, Caliper microfluidic)", "type": "biochemical", "settings": "read-out: Inhibition of CDK kinases: Cdk9/Cyc T", "experimental": "as §1\nCDK9/CycT: Enzyme concentration: 5 nM; ATP concentration: 10 μM; Incubation time: 17 hr."}, "CDK7/CycH/MAT1": {"target": "CDK7/CycH/MAT1 (Homo sapiens, UniProt P50613)", "sequence (P50613 whole entry, species assumed)": "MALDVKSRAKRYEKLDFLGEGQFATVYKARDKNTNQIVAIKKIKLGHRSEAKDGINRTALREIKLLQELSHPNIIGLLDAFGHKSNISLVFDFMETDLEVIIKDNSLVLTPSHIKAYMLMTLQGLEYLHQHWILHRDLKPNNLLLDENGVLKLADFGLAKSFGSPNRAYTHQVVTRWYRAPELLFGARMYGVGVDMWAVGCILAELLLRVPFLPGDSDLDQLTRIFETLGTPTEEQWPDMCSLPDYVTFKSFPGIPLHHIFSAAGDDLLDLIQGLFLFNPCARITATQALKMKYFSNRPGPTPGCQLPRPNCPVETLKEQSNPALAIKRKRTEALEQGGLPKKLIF", "sequence (P51946 whole entry partner, species assumed)": "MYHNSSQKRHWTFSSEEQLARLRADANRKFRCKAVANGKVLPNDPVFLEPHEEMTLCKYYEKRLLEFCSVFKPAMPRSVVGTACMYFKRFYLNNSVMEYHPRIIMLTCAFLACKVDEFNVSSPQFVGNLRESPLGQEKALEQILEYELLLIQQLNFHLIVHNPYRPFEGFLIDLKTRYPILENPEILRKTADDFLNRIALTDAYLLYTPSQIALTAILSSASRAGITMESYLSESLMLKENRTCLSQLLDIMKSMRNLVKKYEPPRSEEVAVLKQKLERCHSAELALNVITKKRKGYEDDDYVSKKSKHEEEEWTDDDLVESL", "sequence (P51948 whole entry partner, species assumed)": "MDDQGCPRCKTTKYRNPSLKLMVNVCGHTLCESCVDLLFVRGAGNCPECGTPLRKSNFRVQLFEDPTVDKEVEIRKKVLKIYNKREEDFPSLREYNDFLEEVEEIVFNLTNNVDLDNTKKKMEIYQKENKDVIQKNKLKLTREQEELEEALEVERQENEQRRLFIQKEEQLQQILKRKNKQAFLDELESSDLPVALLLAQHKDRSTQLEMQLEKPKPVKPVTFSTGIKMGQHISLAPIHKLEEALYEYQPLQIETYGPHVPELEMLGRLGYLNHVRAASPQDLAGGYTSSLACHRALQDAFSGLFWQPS", "assay": "CDK7/CycH/MAT1 kinase assay (Nanosyn, Caliper microfluidic)", "type": "biochemical", "settings": "12-point dose-response, ATP 50 μM (Km), 3 hr; read-out: Inhibition of CDK kinases: Cdk7/CycH/MAT1", "experimental": "as §1\nCDK7/CycH/MAT1: Enzyme concentration: 5 nM; ATP concentration: 50 μM; Incubation time: 3 hr."}, "[2]": {"settings": "Grade 3/4 neutropenia and leukopenia, clinical trial; cited from earlier work"}}, "note": "pIC50: −log10 of the molar value.", "data": [{"smiles": "O=C1NC(=O)c2c1c1c3ccccc3[nH]c1c1[nH]c3cc(Br)ccc3c21", "note": "[Compound 2BrIC, 2-bromo-12,13-dihydro-5H-indolo[2,3-a]pyrrolo[3,4]carbazole-5,6-dione]", "values": [{"measurement": "IR protective characteristics", "setting": "[1]", "result": "exhibited IR protective characteristics"}]}, {"smiles": "CN1CCN(c2ccc(Nc3ncc4c(n3)N3C(CC4)C(=O)NCC3(C)C)nc2)CC1", "note": "(centres unmarked) [ZZZ]", "values": [{"measurement": "pIC50", "setting": "CDK2/CyclinE", "result": "< 4.00"}, {"measurement": "pIC50", "setting": "CDK4/CyclinD1", "result": "< 4.00"}, {"measurement": "pIC50", "setting": "CDK6/CyclinD3", "result": "< 4.00"}, {"measurement": "pIC50", "setting": "CDK5/p35", "result": "< 4.00"}, {"measurement": "pIC50", "setting": "CDK2/CyclinA", "result": "< 4.00"}, {"measurement": "pIC50", "setting": "CDK5/p25", "result": "< 4.00"}, {"measurement": "pIC50", "setting": "CDK9/CycT", "result": "< 4.00"}]}, {"smiles": "CN1CCN(c2ccc(Nc3ncc4c(n3)N3C(CC4)C(=O)NCC34CCCCC4)nc2)CC1", "note": "(centres unmarked) [BBBB]", "values": [{"measurement": "pIC50", "setting": "CDK2/CyclinE", "result": "< 4.00"}, {"measurement": "pIC50", "setting": "CDK7/CycH/MAT1", "result": "< 4.00"}, {"measurement": "pIC50", "setting": "CDK4/CyclinD1", "result": "4.00 to 5.00"}, {"measurement": "pIC50", "setting": "CDK6/CyclinD3", "result": "4.00 to 5.00"}, {"measurement": "pIC50", "setting": "CDK5/p35", "result": "< 4.00"}, {"measurement": "pIC50", "setting": "CDK2/CyclinA", "result": "4.00 to 5.00"}, {"measurement": "pIC50", "setting": "CDK5/p25", "result": "< 4.00"}, {"measurement": "pIC50", "setting": "CDK9/CycT", "result": "< 4.00"}]}, {"smiles": "CN1CCN(c2ccc(Nc3ncc4c(n3)N3C(CC4=O)C(=O)NCC34CCCCC4)nc2)CC1", "note": "(centres unmarked) [AAAA]", "values": [{"measurement": "pIC50", "setting": "CDK2/CyclinE", "result": "< 4.00"}, {"measurement": "pIC50", "setting": "CDK7/CycH/MAT1", "result": "< 4.00"}, {"measurement": "pIC50", "setting": "CDK4/CyclinD1", "result": "< 4.00"}, {"measurement": "pIC50", "setting": "CDK6/CyclinD3", "result": "< 4.00"}, {"measurement": "pIC50", "setting": "CDK5/p35", "result": "< 4.00"}, {"measurement": "pIC50", "setting": "CDK2/CyclinA", "result": "< 4.00"}, {"measurement": "pIC50", "setting": "CDK5/p25", "result": "< 4.00"}, {"measurement": "pIC50", "setting": "CDK9/CycT", "result": "< 4.00"}]}, {"smiles": "CN1CCN(c2ccc(Nc3ncc4c(n3)N3C(CC4=O)C(=O)NCC34CCCC4)nc2)CC1", "note": "(centres unmarked) [CCCC]", "values": [{"measurement": "pIC50", "setting": "CDK2/CyclinE", "result": "< 4.00"}, {"measurement": "pIC50", "setting": "CDK7/CycH/MAT1", "result": "< 4.00"}, {"measurement": "pIC50", "setting": "CDK4/CyclinD1", "result": "< 4.00"}, {"measurement": "pIC50", "setting": "CDK6/CyclinD3", "result": "< 4.00"}, {"measurement": "pIC50", "setting": "CDK5/p35", "result": "< 4.00"}, {"measurement": "pIC50", "setting": "CDK2/CyclinA", "result": "< 4.00"}, {"measurement": "pIC50", "setting": "CDK5/p25", "result": "< 4.00"}, {"measurement": "pIC50", "setting": "CDK9/CycT", "result": "< 4.00"}]}, {"smiles": "CC(=O)c1c(C)c2cnc(Nc3ccc(N4CCNCC4)cn3)nc2n(C2CCCC2)c1=O", "note": "[PD0332991, 6-acetyl-8-cyclopentyl-5-methyl-2-(5-piperazin-1-yl-pyridin-2-ylammino)-8H-pyrido-[2,3-d]-pyrimidin-7-one]", "values": [{"measurement": "patients requiring a dose interruption", "setting": "[2]", "result": 71, "unit": "%"}, {"measurement": "patients requiring a dose reduction", "setting": "[2]", "result": 35, "unit": "%"}, {"measurement": "IR protective characteristics", "setting": "[1]", "result": "exhibited IR protective characteristics"}]}, {"smiles": "CN1CCN(c2ccc(Nc3ncc4c(n3)N3C(CC4=O)C(=O)NCC3(C)C)nc2)CC1", "note": "(centres unmarked) [YYY]", "values": [{"measurement": "pIC50", "setting": "CDK2/CyclinE", "result": "< 4.00"}, {"measurement": "pIC50", "setting": "CDK4/CyclinD1", "result": "> 5.00"}, {"measurement": "pIC50", "setting": "CDK6/CyclinD3", "result": "4.00 to 5.00"}, {"measurement": "pIC50", "setting": "CDK5/p35", "result": "< 4.00"}, {"measurement": "pIC50", "setting": "CDK2/CyclinA", "result": "< 4.00"}, {"measurement": "pIC50", "setting": "CDK5/p25", "result": "< 4.00"}, {"measurement": "pIC50", "setting": "CDK9/CycT", "result": "< 4.00"}]}, {"smiles": "CN1CCN(c2ccc(Nc3ncc4c(n3)N3CCNC(=O)C3CC4=O)nc2)CC1", "note": "(centres unmarked) [GGGG]", "values": [{"measurement": "pIC50", "setting": "CDK2/CyclinE", "result": "< 4.00"}, {"measurement": "pIC50", "setting": "CDK7/CycH/MAT1", "result": "< 4.00"}, {"measurement": "pIC50", "setting": "CDK4/CyclinD1", "result": "4.00 to 5.00"}, {"measurement": "pIC50", "setting": "CDK6/CyclinD3", "result": "4.00 to 5.00"}, {"measurement": "pIC50", "setting": "CDK5/p35", "result": "< 4.00"}, {"measurement": "pIC50", "setting": "CDK2/CyclinA", "result": "< 4.00"}, {"measurement": "pIC50", "setting": "CDK5/p25", "result": "< 4.00"}, {"measurement": "pIC50", "setting": "CDK9/CycT", "result": "< 4.00"}]}]}
